# Assay results taken from patent US11058903B2, “Methods for identifying and treating cachexia or pre-cachexia using an inhibitor of rage” (THE BROAD INSTITUTE, INC., priority 2013, dated 2021).
# “Also recorded” adds a separate entry of the source.
# Columns and labels:
# human muscle cells = assay: Testing of secreted proteins/cytokines for induction of the L1000 cachexia signature in muscle cells; assay type: cell-based; conditions: in vitro systems described
# Method: FIG. 32 are graphs showing cytokine abundance relative to cachexia in patient plasma and conditioned media. Human cytokines (300 on cytokine array) in muscle were tested. None of the expected “usual suspect” cytokines induced the cachectic phenotype or gene expression signature in human muscle cells. IL6, INHBA, IFNG, IL10, IL1, TNFa was assayed in patient plasma and conditioned media.
# FIG. 33 is a graph showing testing of human cytokines for induction of cancer cachexia signature. For some the enrichment score was weak (e.g., 1.25).
# A faithful read-out of the cachectic phenotype was also developed using a novel high-throughput, low-cost gene expression profiling method (L1000) (FIG. 5). L1000 involves the profiling of 1000 human transcripts from which the remainder of the transcriptome can be computationally inferred. This method, validated in over 1 million samples, allowed for profiling of small numbers of cells grown in 384-well plates.
# Therefore, it is likely that the major cachexia-inducing factors were yet to be discovered.
# HSkM cells = assay: In-Cell Western of myosin heavy chain (MyoHC) content in muscle cells exposed to CI-CM; assay type: cell-based, human
# Source text: FIG. 21 is a chart showing the quantification of myosin heavy chain (MyoHC) content determined by In-Cell Western analysis of in vitro HSkM cells treated with media conditioned by cachexia-inducing MkN1 and G361 cells and in vitro HSkM cells treated with media conditioned by non-cachexia-inducing 293 cells, either in the presence or absence of a MEK/ERK inhibitor PD184352 (PD184).
# FIG. 22 is a chart showing the myosin heavy chain (MyoHC) content determined by In-Cell Western analysis of in vitro HSkM cells pre-treated (for 2 days) or not pre-treated with cachexia-inducing conditioned media (“CI-CM”), either in the presence or absence of an ERK1/2 inhibitor, SCH772984 (SCH2984).
# FIGS. 23A and 23B are a series of charts showing the dose response of myosin heavy chain (MyoHC) content determined by In-Cell Western analysis of muscle cells treated with a RAGE Anti-Peptide (FIG. 23A) or an anti-RAGE mAb (FIG. 23B), either in the absence or presence of cachexia-inducing conditioned media (CI-CM).
# FIG. 24 is a chart showing the dose response of myosin heavy chain (MyoHC) content determined by In-Cell Western analysis of muscle cells treated with a recombinant soluble RAGE, either in the presence of cachexia-inducing conditioned media (CI-CM) or non-cachexia-inducing conditioned media (NCI-CM). […]
# pancreatic cancer cells = assay: CellTiter Glo cell number assay, chemotherapy with or without soluble RAGE; assay type: cell-based; conditions: treated for 5 days; Gemcitibine alone or with increasing doses of recombinant human soluble RAGE
# MEK/ERK = assay: Western blot of phosphorylated MEK and ERK in muscle cells exposed to cachexia-inducing conditioned media (CI-CM); assay type: cell-based, human; conditions: FIG. 20; for CI-CM stimulated phosphorylation of ERK: human muscle cells stimulated by CI-CM; for MEK/ERK activation (pMEK, pERK) by cachexia stimuli in CI-CM: muscle cells exposed to CI-CM, relative to NCI-CM, Western blot
# Source text: FIG. 20 is an image of a Western blot showing phosphorylated MEK (pMEK) and phosphorylated ERK (pERK) in muscle cells exposed to cachexia-inducing conditioned media (CI-CM), either in the absence or presence of the MEK/ERK inhibitors, PD184352 (PD184) and trametinib (Tram). Also shown are pMEK and pERK levels in muscle cells exposed to non-cachexia-inducing conditioned media (NCI-CM).
# Inhibition of MEK by exposure to PD1 84352 or trametinib blocked CI-CM stimulated phosphorylation of ERK (FIG. 20).
# [1] = system: differentiated primary adipocytes; assay: Lipid loss in adipocytes treated with CI-CM (bodipy/DAPI staining); assay type: cell-based, human; conditions: 5 days CI-CM, FIG. 42
# Source text: FIG. 42 includes six panels showing adipocytes in cultured stained with bodipy to highlight lipids and DAPI to stain nuclei. Lipids are lost in cells treated for 5 days with cachexia (CXA) inducing conditioned media (CM). Lipid loss is inhibited by inhibiting RAGE signaling.
# Lipid loss from differentiated primary adipocytes occurs within 5 days of contact with cachexia-inducing conditioned media (FIG. 42A). This loss is inhibited in adipocytes treated with Rage inhibitors, anti-RAGE monoclonal antibody AF1145 or Tramatenib. This phenotypic response is also seen in melanoma cells.
# The effects of treatment with RAGE blocking antibodies and Tremetinib are shown (FIG. 42).
molecule,measurement,setting,value
Myostatin: secreted protein tested as candidate cachexia-inducing protein,induction of the cachexia signature,human muscle cells,none of them strongly induced the cachexia signature
Activin,induction of the cachexia signature,human muscle cells,none of them strongly induced the cachexia signature
O=C(Nc1ccc2[nH]nc(-c3ccncc3)c2c1)C1CCN(CC(=O)N2CCN(c3ccc(-c4ncccn4)cc3)CC2)C1 (stereo not drawn) [SCH772984],reversal of cachectic induced loss of myosin heavy chain (MyoHC),"HSkM cells; HSkM cells pre-treated (2 days) or not with CI-CM, dose response, FIG. 22","can reverse the MyoHC loss at a certain dose, beyond which the benefit is lost; also recorded: (partially) reverse; also recorded: reduced in a dose-dependent manner"
IFNγ: secreted protein tested as candidate cachexia-inducing protein,induction of the cachexia signature,human muscle cells,none of them strongly induced the cachexia signature
TNFα,induction of the cachexia signature,human muscle cells,none of them strongly induced the cachexia signature
Nc1ccn([C@@H]2O[C@H](CO)[C@@H](O)C2(F)F)c(=O)n1 [Gemcitibine],pancreatic cancer cell numbers (CellTiter Glo),pancreatic cancer cells,reduction
IL-6: secreted protein tested as candidate cachexia-inducing protein,induction of the cachexia signature,human muscle cells,none of them strongly induced the cachexia signature
O=C(NOCC1CC1)c1ccc(F)c(F)c1Nc1ccc(I)cc1Cl [PD184352],CI-CM stimulated phosphorylation of ERK,MEK/ERK,blocked
same,"MEK/ERK activation (pMEK, pERK) by cachexia stimuli in CI-CM",MEK/ERK,inhibited
same,cachectic induced loss of myosin heavy chain (MyoHC) protein,"HSkM cells; HSkM cells with media conditioned by MkN1 and G361 cells, low-dose, dose curve, FIG. 21",blocks loss of MyoHC; also recorded: block
"CC(=O)Nc1cccc(-n2c(=O)n(C3CC3)c(=O)c3c(Nc4ccc(I)cc4F)n(C)c(=O)c(C)c32)c1 [trametinib, N-[3-[3-Cyclopropyl-5-[(2-fluoro-4-iodophenyl)amino]-3,4,6,7-tetrahydro-6,8-dimethyl-2,4,7-trioxopyrido[4,3-d]pyrimidin-1(2H)-yl]phenyl]acetamide]",CI-CM stimulated phosphorylation of ERK,MEK/ERK,blocked
same,"MEK/ERK activation (pMEK, pERK) by cachexia stimuli in CI-CM",MEK/ERK,inhibited
same,lipid loss from adipocytes caused by cachexia-inducing conditioned media,[1]; listed as Tramatenib,inhibited
same,lipid loss from adipocytes caused by cachexia-inducing conditioned media,[1]; listed as Tremetinib,block the loss of lipid
"IL-10: secreted protein tested as candidate cachexia-inducing protein (protein, UniProt P22301 19-178, looked up) Interleukin-10: SPGQGTQSENSCTHFPGNLPNMLRDLRDAFSRVKTFFQMKDQLDNLLLKESLLEDFKGYLGCQALSEMIQFYLEEVMPQAENQDPDIKAHVNSLGENLKTLRLRLRRCHRFLPCENKSKAVEQVKNAFNKLQEKGIYKAMSEFDIFINYIEAYMTMKIRN",induction of the cachexia signature,human muscle cells,none of them strongly induced the cachexia signature
